Test results: article doi:10.1101/2025.06.24.661388v1 (biorxiv, 2025)

Legend:
[1] = biological target: T1, monoacylglycerol lipase (MAGL), mouse brain (Mus musculus, UniProt O35678); assay: saturation autoradiography on brain sections; details: labelled compound; [3H]T-401 […]; […] min; cerebral cortex
T1 sequence (O35678 1-303): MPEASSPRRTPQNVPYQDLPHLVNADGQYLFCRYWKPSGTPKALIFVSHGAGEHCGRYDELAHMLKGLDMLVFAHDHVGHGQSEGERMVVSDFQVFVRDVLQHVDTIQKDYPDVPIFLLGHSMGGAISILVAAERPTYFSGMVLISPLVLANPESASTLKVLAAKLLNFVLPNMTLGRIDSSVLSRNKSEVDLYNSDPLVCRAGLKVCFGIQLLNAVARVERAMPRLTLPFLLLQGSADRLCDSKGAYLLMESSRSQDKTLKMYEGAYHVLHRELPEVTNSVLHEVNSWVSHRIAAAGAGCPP

[2] = biological target: T2, monoacylglycerol lipase (MAGL), human temporal cortex (Homo sapiens, UniProt Q99685); assay: saturation autoradiography on brain sections; details: labelled compound, [3H]T-401 […] min, room temperature
T2 sequence (Q99685 1-303): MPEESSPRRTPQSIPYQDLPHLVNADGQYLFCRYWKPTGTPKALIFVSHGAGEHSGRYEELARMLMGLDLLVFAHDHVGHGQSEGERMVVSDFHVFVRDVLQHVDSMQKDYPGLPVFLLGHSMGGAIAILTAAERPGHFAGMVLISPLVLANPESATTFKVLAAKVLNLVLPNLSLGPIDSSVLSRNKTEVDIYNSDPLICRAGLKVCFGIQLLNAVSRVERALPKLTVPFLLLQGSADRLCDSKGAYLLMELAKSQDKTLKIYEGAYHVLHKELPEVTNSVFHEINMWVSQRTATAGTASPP

[3] = biological target: T1, monoacylglycerol lipase (MAGL), mouse brain; assay: displacement autoradiography on brain sections; details: unlabelled T-401 against […] [3H]T-401; hippocampus and cerebral cortex
[4] = biological target: T2, monoacylglycerol lipase (MAGL), human temporal cortex; assay: displacement autoradiography on brain sections; details: unlabelled T-401 against […] [3H]T-401, room temperature

- Kd [1]: 5.8 nM
- Kd [2]: 4.7 ± 0.8 nM
- IC50 [3]: 41 nM
- IC50 [4]: 32 nM
Compound: Cc1ccnc(F)c1-c1cccc(N2C[C@H](N3CCN(C(=O)c4nccs4)CC3)CC2=O)c1 [T-401, (R)-1-(3-(2-fluoro-4-methylpyridin-3-yl)phenyl)-4-(4-(thiazole-2-carbonyl)piperazin-1-yl)pyrrolidine-2-one]
